Data taken from PubChem BioAssay (NCI).
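Dose response: 5 concentrations. Exposure: 48 h. Format: 96-well plates. Endpoint: linear interpolation; highest concentration if not reached. GI50 is the concentration that inhibits growth by half. TGI: total growth inhibition.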

Key:
Test in all cases: NCI anticancer screen, dose series, 48 h
HCC-2998 colon = tested on: HCC-2998 colon
EKVX NSCLC = tested on: EKVX NSCLC
DU-145 prostate = tested on: DU-145 prostate
SK-MEL-5 melanoma = tested on: SK-MEL-5 melanoma
NCI-H23 lung = tested on: NCI-H23 lung
SNB-19 CNS = tested on: SNB-19 CNS
OVCAR-4 ovarian = tested on: OVCAR-4 ovarian
UO-31 renal = tested on: UO-31 renal
M14 melanoma = tested on: M14 melanoma
SW-620 colon = tested on: SW-620 colon
TK-10 renal = tested on: TK-10 renal
MALME-3M melanoma = tested on: MALME-3M melanoma
SF-539 CNS = tested on: SF-539 CNS
HCT-116 colon = tested on: HCT-116 colon
K-562 leukemia = tested on: K-562 leukemia
A498 renal = tested on: A498 renal
SF-268 CNS = tested on: SF-268 CNS
NCI-H460 lung = tested on: NCI-H460 lung
SK-MEL-28 melanoma = tested on: SK-MEL-28 melanoma
A549 NSCLC = tested on: A549 NSCLC
MDA-MB-231 breast = tested on: MDA-MB-231 breast
U251 CNS = tested on: U251 CNS
HL-60(TB) leukemia = tested on: HL-60(TB) leukemia
OVCAR-5 ovarian = tested on: OVCAR-5 ovarian
UACC-62 melanoma = tested on: UACC-62 melanoma
NCI/ADR-RES ovarian = tested on: NCI/ADR-RES ovarian
CAKI-1 renal = tested on: CAKI-1 renal
CCRF-CEM leukemia = tested on: CCRF-CEM leukemia
PC-3 prostate = tested on: PC-3 prostate
NCI-H522 lung = tested on: NCI-H522 lung
SR leukemia = tested on: SR leukemia
MDA-MB-435 = tested on: MDA-MB-435
OVCAR-8 ovarian = tested on: OVCAR-8 ovarian
HCT-15 colon = tested on: HCT-15 colon
BT-549 breast = tested on: BT-549 breast
IGROV1 ovarian = tested on: IGROV1 ovarian
RXF 393 renal = tested on: RXF 393 renal
LOX IMVI melanoma = tested on: LOX IMVI melanoma
HT29 colon = tested on: HT29 colon
786-0 renal = tested on: 786-0 renal
SN12C renal = tested on: SN12C renal
SNB-75 CNS = tested on: SNB-75 CNS
HS 578T breast = tested on: HS 578T breast
SK-MEL-2 melanoma = tested on: SK-MEL-2 melanoma
OVCAR-3 ovarian = tested on: OVCAR-3 ovarian
SF-295 CNS = tested on: SF-295 CNS
MOLT-4 leukemia = tested on: MOLT-4 leukemia
UACC-257 melanoma = tested on: UACC-257 melanoma
COLO 205 colon = tested on: COLO 205 colon
HOP-92 NSCLC = tested on: HOP-92 NSCLC
HOP-62 NSCLC = tested on: HOP-62 NSCLC
KM12 colon = tested on: KM12 colon
RPMI-8226 leukemia = tested on: RPMI-8226 leukemia

For `O=C(Nc1ccc(F)cc1F)c1cc(F)ccc1O`, the GI50 (HCC-2998 colon) was 3.12 µM, the TGI (HCC-2998 colon) was 13.1 µM and the GI50 (EKVX NSCLC) was 2.23 µM. The TGI (EKVX NSCLC) was 10.5 µM, the GI50 (DU-145 prostate) was 3.62 µM and the TGI (DU-145 prostate) was over 100 µM. For the same molecule, the GI50 (SK-MEL-5 melanoma) was 1.27 µM, the TGI (SK-MEL-5 melanoma) was 2.81 µM and the GI50 (NCI-H23 lung) was 2.07 µM. The TGI (NCI-H23 lung) was 6.62 µM, the GI50 (SNB-19 CNS) was 3.17 µM and the TGI (SNB-19 CNS) was over 100 µM. For the same molecule, the GI50 (OVCAR-4 ovarian) was 2.59 µM, the TGI (OVCAR-4 ovarian) was over 100 µM and the GI50 (UO-31 renal) was 1.96 µM. The TGI (UO-31 renal) was 7.16 µM, the GI50 (M14 melanoma) was 2.82 µM and the TGI (M14 melanoma) was 13.2 µM. For the same molecule, the GI50 (SW-620 colon) was 3.15 µM, the TGI (SW-620 colon) was over 100 µM and the GI50 (TK-10 renal) was 4.48 µM. For the same molecule, the TGI (TK-10 renal) was over 100 µM, the GI50 (MALME-3M melanoma) was 2.04 µM and the TGI (MALME-3M melanoma) was 7.66 µM. It also gave a GI50 (SF-539 CNS) of 2.85 µM, a TGI (SF-539 CNS) of 12.3 µM and a GI50 (HCT-116 colon) of 2.91 µM. The TGI (HCT-116 colon) was 11.1 µM, the GI50 (K-562 leukemia) was 2.41 µM and the TGI (K-562 leukemia) was over 100 µM. The GI50 (A498 renal) was 1.84 µM, the TGI (A498 renal) was 5.53 µM and the GI50 (SF-268 CNS) was 3.34 µM. For the same molecule, the TGI (SF-268 CNS) was 67.1 µM, the GI50 (NCI-H460 lung) was 2.94 µM and the TGI (NCI-H460 lung) was over 100 µM. For the same molecule, the GI50 (SK-MEL-28 melanoma) was 2.77 µM, the TGI (SK-MEL-28 melanoma) was 13.2 µM and the GI50 (A549 NSCLC) was 3.04 µM. It also gave a TGI (A549 NSCLC) of over 100 µM, a GI50 (MDA-MB-231 breast) of 1.9 µM and a TGI (MDA-MB-231 breast) of 4.9 µM. For the same molecule, the GI50 (U251 CNS) was 2.95 µM, the TGI (U251 CNS) was over 100 µM and the GI50 (HL-60(TB) leukemia) was 2.33 µM. For the same molecule, the TGI (HL-60(TB) leukemia) was 5.38 µM, the GI50 (OVCAR-5 ovarian) was 3.18 µM and the TGI (OVCAR-5 ovarian) was over 100 µM. It also gave a GI50 (UACC-62 melanoma) of 1.38 µM, a TGI (UACC-62 melanoma) of 4.12 µM and a GI50 (NCI/ADR-RES ovarian) of 2.81 µM. For the same molecule, the TGI (NCI/ADR-RES ovarian) was 9.78 µM, the GI50 (CAKI-1 renal) was 2.37 µM and the TGI (CAKI-1 renal) was 11.6 µM. For the same molecule, the GI50 (CCRF-CEM leukemia) was 3.35 µM, the TGI (CCRF-CEM leukemia) was over 100 µM and the GI50 (PC-3 prostate) was 2.61 µM. It also gave a TGI (PC-3 prostate) of 9.53 µM, a GI50 (NCI-H522 lung) of 2.59 µM and a TGI (NCI-H522 lung) of over 100 µM. The GI50 (SR leukemia) was 3.95 µM, the TGI (SR leukemia) was over 100 µM and the GI50 (MDA-MB-435) was 2.86 µM. The TGI (MDA-MB-435) was 34.2 µM, the GI50 (OVCAR-8 ovarian) was 3.44 µM and the TGI (OVCAR-8 ovarian) was over 100 µM. The GI50 (HCT-15 colon) was 2.92 µM, the TGI (HCT-15 colon) was over 100 µM and the GI50 (BT-549 breast) was 2.43 µM. It also gave a TGI (BT-549 breast) of 6.75 µM, a GI50 (IGROV1 ovarian) of 2.58 µM and a TGI (IGROV1 ovarian) of over 100 µM. It also gave a GI50 (RXF 393 renal) of 2.49 µM, a TGI (RXF 393 renal) of 8.33 µM and a GI50 (LOX IMVI melanoma) of 3.39 µM. For the same molecule, the TGI (LOX IMVI melanoma) was 12.1 µM, the GI50 (HT29 colon) was 3.37 µM and the TGI (HT29 colon) was over 100 µM. It also gave a GI50 (786-0 renal) of 3.19 µM, a TGI (786-0 renal) of 16.2 µM and a GI50 (SN12C renal) of 2.2 µM. The TGI (SN12C renal) was 8.02 µM, the GI50 (SNB-75 CNS) was 3.19 µM and the TGI (SNB-75 CNS) was 30.7 µM. The GI50 (HS 578T breast) was 2.37 µM, the TGI (HS 578T breast) was 9.14 µM and the GI50 (SK-MEL-2 melanoma) was 2.48 µM. For the same molecule, the TGI (SK-MEL-2 melanoma) was 6.54 µM, the GI50 (OVCAR-3 ovarian) was 2.77 µM and the TGI (OVCAR-3 ovarian) was 21.9 µM. The GI50 (SF-295 CNS) was 1.99 µM, the TGI (SF-295 CNS) was 4.36 µM and the GI50 (MOLT-4 leukemia) was 2.63 µM. It also gave a TGI (MOLT-4 leukemia) of 6.88 µM, a GI50 (UACC-257 melanoma) of 2.26 µM and a TGI (UACC-257 melanoma) of 7.32 µM. It also gave a GI50 (COLO 205 colon) of 2.08 µM, a TGI (COLO 205 colon) of 5.06 µM and a GI50 (HOP-92 NSCLC) of 0.569 µM. It also gave a TGI (HOP-92 NSCLC) of 3.59 µM, a GI50 (HOP-62 NSCLC) of 2.9 µM and a TGI (HOP-62 NSCLC) of 47.2 µM. It also gave a GI50 (KM12 colon) of 2.76 µM, a TGI (KM12 colon) of 10.6 µM and a GI50 (RPMI-8226 leukemia) of 1.4 µM. The TGI (RPMI-8226 leukemia) was 5.01 µM.
